Reference: patent publication US5036097A, “Phenylbutyl nitrone compositions and methods for prevention of gastric ulceration” (Oklahoma Medical Research Foundation, priority 1990, dated 1991)

What was measured:
[1] = system: mitochondrial respiration; assay: mitochondrial respiration (liver mitochondria); type: biochemical, rat
Description: Studies of Mitochondrial Respiration.
Rat liver mitochondria are prepared using the method of Lai and Clark Methods Enzymol 55:51-60 (1979). The livers are excised rapidly into ice cold isolation medium containing 0.25M sucrose, 10 mM tris(hydroxymethyl)aminomethane (Tris), 0.25% bovine serum albumin (fatty acid free), and 0.5 mM potassium EDTA, pH 7.4. The tissue is minced and rinsed three times in cold isolation medium. The minced tissue is placed in a Dounce homogenizer with 20 ml cold isolation medium, gently homogenized, and diluted with an additional 10 ml of isolation medium. The homogenate is centrifuged at 2,000 g for 3 min., and the resulting supernatant recentrifuged at 12,500 g for 8 min. The crude mitochondrial pellet is suspended in 0.12M mannitol-0.03M sucrose medium containing 3% Ficoll, gently layered onto 20 ml of 6% Ficoll (0.25M mannitol-0.06M sucrose), and centrifuged at 11,500 g for 30 min. The resulting mitochondrial pellet is resuspended in the isolation medium and recentrifuged for 10 min. at 12,500 g. The final pellet is brought to a concentration of 10 to 15 mg of mitochondrial protein per ml with isolation medium. Mitochondrial protein is determined by the Biuret reaction described by Gornall, A. G., et al. Biol Chem 177:751-766 (1949), using bovine serum albumin as a standard. Mitochondrial respiration is measured polarographically in a magnetically stirred chamber at 25° C., using a Clark microelectrode (Diamond Electro-tech, Ann Arbor, Mich.). The incubation medium contains the following (in mM): 5K+, 226 mannitol, 75 sucrose, 5 Tris-phosphate, 10 Tris-Cl, and 0.05 EDTA at pH 7.4. State 4 respiratory rates are determined using both NADH-linked (2.5 mM malate+ 2 mM glutamate) and FADH2 -lined (10 mM succinate) substrates, with 5 mM KCl at pH 7.0. State 3 respiration rates are measured after stimulation with 1.5 mM ADP. Respiratory control ratios are determined as the ratio of State 3 to State 4 respiration after incubation with 0, 50, 100 and 200 μM piroxicam.

gastric ulceration = settings: rats and mice; cited from earlier work
[2] = rat liver mitochondria, 0-200 μM piroxicam

SMILES: CN1C(C(=O)Nc2ccccn2)=C(O)c2ccccc2S1(=O)=O [piroxicam]
- respiratory control ([1]; FADH2-linked and NADH-linked substrates): inhibition of respiratory control
- rate of mitochondrial oxygen uptake in the absence of ADP (State 4) [1, 2]: increases the rate of mitochondrial oxygen uptake
- stimulation of respiration by ADP (State 3) [1, 2]: lost in the presence of piroxicam
- ulcerogenicity (gastric ulceration): highly ulcerogenic
